{"source": "patent US4590202A", "about": "“N-(2-imidazolidinylidene)-5H-dibenzo[a,d]cyclohepten-5-amine compounds and α2 -adrenergic antagonistic uses thereof” (Merck & Co., Inc., priority 1984, dated 1986)", "key": {"[1]": {"system": "vascular smooth muscle", "assay": "inhibition of calcium induced contraction of vascular smooth muscle", "set-up": "species or system male Sprague-Dawley rats", "conditions": "10^-7 M; contraction induced by 1.0 mM calcium chloride in depolarized rat vascular smooth muscle", "experimental": "The property may be observed in a test in which segments of vascular smooth muscle obtained from male Sprague-Dawley rats are suspended in physiological salt solution in a tissue bath instrumented for recording contractions. After the tissue has been equilibrated, washed in calcium-free physiological salt solution and then depolarized, 1.0 mM calcium chloride is re-added to induce contraction. After the contraction has reached a plateau, tissues are washed and a test compound or vehicle is added to determine the effect on a second contraction achieved by the above cyclic protocol. From measuring the initial contraction as well as the second contraction in the presence of the test compound, the extent of inhibition may be calculated."}, "[2]": {"system": "α2 -adrenoreceptor", "assay": "neurogenic contractions of rat vas deferens (α2-adrenergic activity)", "conditions": "electrically stimulated rat vas deferens", "experimental": "(§1) In such determination, vas deferens of rat is suspended under tension between two platinum electrodes of an organ bath containing Tyrode's solution and contractile responses to electrical stimulation recorded. Agonist drug is added and EC50 values determined. After wash out, an antagonist drug is added and after a suitable period of contact with the tissue, the EC50 values of agonist in presence of antagonist are similarly determined.\n(§2) These properties indicate suitability for use as an antidepressant."}, "[3]": {"system": "α1 -adrenoreceptor", "assay": "neurogenic contractions of rat vas deferens (α1-adrenergic activity)", "conditions": "electrically stimulated rat vas deferens", "experimental": "as §1, §2"}}}
{"smiles": "Brc1ccc2c(c1)C(N=C1NCCN1)c1ccccc1C=C2.I", "note": "(stereo not drawn) [N-(2-Imidazolidinylidene)-3-bromo-5H-dibenzo[a,d]cyclohepten-5-amine Hydroiodide]", "values": [{"measurement": "inhibition at 0.1 µM", "setting": "[1]", "value": 40, "unit": "%"}, {"measurement": "antagonism of the inhibition of contractions produced by clonidine", "setting": "[2]; agonist clonidine", "value": "antagonized the inhibition of contractions produced by clonidine"}, {"measurement": "antagonism of the response to methoxamine", "setting": "[3]; agonist methoxamine", "value": "antagonized the response to methoxamine with a similar order of potency"}, {"measurement": "effect on neurogenic contractions of the rat vas deferens when given alone", "setting": "[3]; compound alone", "value": "enhanced the neurogenic contractions of the rat vas deferens"}]}
{"smiles": "C1=Cc2ccccc2C(N=C2NCCN2)c2ccccc21.I", "note": "[N-(2-Imidazolidinylidene)-5H-dibenzo[a,d]cyclohepten-5-amine Hydroiodide]", "values": [{"measurement": "inhibition at 0.1 µM", "setting": "[1]", "value": 56, "unit": "%"}, {"measurement": "effect on neurogenic contractions of the rat vas deferens", "setting": "[2]; antagonism by rauwolscine", "value": "inhibit neurogenic contractions of the rat vas deferens which was antagonized by rauwolscine"}]}
